Source: patent US9662314B2, “Compounds and methods for the treatment of muscular disease, and related screening methods” (Tufts Medical Center, Inc., priority 2011, dated 2017)

How the values were obtained:
[1] = test system: vascular endothelial growth factor (VEGF); conditions: Jeong et al. 2011; cited from earlier work
[2] = test system: glucose transporter 1 (GLUT-1); conditions: Jeong et al. 2011; cited from earlier work
[3] = test system: mammary carcinoma; conditions: intraperitoneal administration, murine mammary carcinoma (Nakajima et al., 2007); cited from earlier work
[4] = literature statement; cited from earlier work
[5] = test system: human osteosarcoma cells (U2OS); conditions: proteome analysis (Kang et al. 2006); cited from earlier work
[6] = test system: splicing factor hnRNP L; conditions: U2OS cells, most up-regulated protein (Kang et al. 2006); cited from earlier work
[7] = test system: BIN1; conditions: U2OS cells, third most up-regulated protein (Kang et al. 2006); cited from earlier work
[8] = test system: Smooth mutant Drosophila flies (sm homozygotes, that develop muscle dystrophy); test: Survival of adult smooth mutant Drosophila flies treated with ascochlorin (FIG. 1); type: in vivo; conditions: adult sm homozygote flies on paper discs, 1 mM solution in 9% sucrose, 10% ethanol, throughout lifespan, vs vehicle alone
Procedure: Smooth mutant Drosophila flies (sm homozygotes, that develop muscle dystrophy) were maintained on paper discs soaked either with ascochlorin (Santa Cruz Biotechnology, 1 mM solution in 9% sucrose, 10% ethanol), or with vehicle alone. The treatment was maintained throughout the lifespan of the organism. Unaffected control siblings (sm heterozygotes) were maintained on vehicle. The number of dead flies was recorded daily, and percent survival was plotted as a function of time in days.

| Compound | expression of VEGF [1] | expression of GLUT-1 [2] | cancer growth [3] | survival [3] | toxicity [4] | increase in the levels of three proteins [5] | hnRNP L up-regulation [6] | BIN1 up-regulation [7] | survival time [8] |
| --- | --- | --- | --- | --- | --- | --- | --- | --- | --- |
| COc1c(Cl)c(C)c(C=O)c(O)c1C/C=C(C)/C=C/[C@@]1(C)[C@H](C)CCC(=O)[C@@H]1C [MAC, 4-O-methylascochlorin] | increases the expression | increases the expression | – | – | – | – | – | – | – |
| CC(/C=C/[C@@]1(C)[C@H](C)CCC(=O)[C@@H]1C)=C\Cc1c(O)c(Cl)c(C)c(C=O)c1O [ascochlorin] | – | – | significantly suppressed cancer growth | prolonged survival | non-toxic | ≥ 10 fold | 12 × | 10 × | prolonged survival time |
| C/C(=C\Cc1c(O)c(Cl)c(C)c(C=O)c1O)CC/C=C(\C)[C@@H]1CC(=O)C(C)(C)O1 [ascofuranone] | – | – | – | – | non-toxic | – | – | – | – |
